Test results published in patent EP1592418B1, “USE OF ENDOCANNABINOID-LIKE COMPOUNDS FOR TREATING CNS DEGENERATIVE DISORDERS” (Research & Innovation S.p.A., priority 2003, dated 2004).

Columns and labels:
[1] = Rectal temperature (central cannabinoid effect, hypothermia); assay type: in vivo, mouse; details: for ΔT (°C) rectal temperature: treated animals, Vehicle 0,1 ± 0,2
Experimental: (§1) The tested molecules were solubilised in DMSO, cremophor and PBS in a ratio of 1:1:18 and administered usually by intraperitonelly at the dosage of 10 mg/Kg 1 hour before the induction of anafilactic reaction. The animals were sacrificed 3 hours after the molecule administration.
TABLE 4. Rectal temperature in animals that have been treated with cannabinoids, endocannabinoids or molecules that are object of the present invention. Note a profound hypothermia induced by synthetic cannabinoid such as Win 55,212 or the endocannabinoid Anandamide while no alteration was induced by molecules that are object of the present invention.

[2] = tested on: Jurkat cells; test: Evaluation of cellular viability by MTT assay; assay type: cell-based, human; details: 10 µM, incubated 18-24 hr, MTT, absorbance 570 nm
Experimental: Jurkat, an acute T-lymphoblastic leukemia cell line generated from a person, have been used. Cell culture have been cultured in RPMI-1640 culture medium containing 10% FBS.
Jurkat cells were cultured at 1x10^5 cells/ml in RPMI 1640 medium supplemented with 10% fetal bovine serum (FBS), 2mM L-glutamine and 100 U/ml penicillin + 100 ug/ml streptomycin.
To detect drug effect in vitro, MTT [3-(4,5-dimethylthiazol-2-yl)-2,5-diphenyltetrazolium bromide] assay was used as described (Carmichael J et al., 1987 Cancer Res. 47, 936-42). Briefly, cells were seeded in triplicate on 96-well culture plates at a density of 20000 cells/well. The drugs were added in order to have the final concentration of 10 µM (1 µl of a solution of 10mM in DMSO) and incubated for 18-24 hr. Then MTT (0.5 mg/ml) was added to each well, and plates were incubated for an additional 1 to 3 hr in the dark at 37 °C. After this time the MTT solution was aspirated from the wells and 0.1 ml of DMSO was added. The plates were allowed to stand for 10 min, and then the absorbance was determined in a SpectraCount (Packard) microplate reader at 570 nm. The drug effect was determined by comparing absorbances of treated and untreated cells.

[3] = tested on: reverse passive Arthus reaction, mouse ear pinna; test: Reverse passive Arthus reaction (RPA) in the mouse ear pinna: oedema and Evans blue extravasation; assay type: in vivo; details: mouse ear; for Extravasation / Riduction % (extravasation): 10 mg/Kg i.p.; for Extravasation: Evans blue density at 620 nm in ear homogenate supernatant, Vehicle 0,90±0,06, Naïve 0,04±0,01; for Oedema (mg): 10 mg/Kg intraperitoneally 1 hour before induction, weight increase of 8 mm punch vs contralateral ear, three hours after antigen, Vehicle 49,8 ± 1,2, Naive 23,7 ± 1,2; for Riduction % (extravasation): reduction of extravasation versus Vehicle (0)
Excerpt: The Arthus model (RPA) is a model of immune-complex mediated tissue damage that involves the passive subcutaneous introduction of an antibody and the systemic administration of the corresponding antigen. This inflammatory model has been used to test the in vivo activity of the synthesised molecules.
The reverse passive Arthus reaction is induced, in the mouse ear pinna, by the subcutaneous injection of an excess of IgG anti human albumin followed by i.v. adiministration of the corresponding Ag (i.e. human albumin) together with Evans blue, 2 mg for each mouse, for the evaluation of extravasation.
as §1
The oedema and the extravasations are evaluated tree hours after the i.v. administration of the antigen. The oedema is evaluated as the increase of weight of lesioned ear area dissected by a 8 mm biopsy punch as compared to the contralateral unlesioned auricular tissues. The extravasation is measured determining the Evans blue density at 620 nm in the supernatants deriving from ear homogenates following centrifugation at 10000 x g for 20 min.

[4] = Solubility (physico-chemical properties); assay type: physicochemical; details: for solubility: organic solvent or mixture, read-out: solubility in organic solvents; for solubility / solubility in organic solvents: in DMSO and in chloroform

SMILES	ΔT (°C) rectal temperature [1]	Growth inhibition (% of control) [2]	Extravasation [3]	Oedema (mg) [3]	Riduction % (extravasation) [3] [%]	solubility [4] [µg/mL]	solubility in water [4]	rectal temperature (in words) ([1]; mouse, in vivo)	Extravasation ([3]; 10 mg/kg)	Oedema (mg) ([3]; 10 mg/kg)	Riduction % (extravasation) ([3]; 10 mg/kg) [%]	solubility in organic solvents [4]
CCCCCCCCCCCCCCCCCC(=O)NCCCCC [Example 34, N- pentyl-stearoyl amide]	0,1 ± 0,1 °C	34.2 % of control	0,62±0,08	42,5 ± 3.5 mg	31.2	> 10000	scarcely soluble					
CCCCCCCCCCCCCCCCCC(=O)NC(C)C [Example 4, N-Isopropyl-stearoyl amide]	0,2 ± 0,1 °C	45.3 % of control	0,20±0,03	26,5 ± 0,9 mg	77.8	> 10000	scarcely soluble					
CCCCCCCCCCCCCCCC(=O)NC(C)C [Example 2, N-isopropyl-palmitoyl amide]	0,1 ± 0,1 °C	55.6 % of control	0,37±0,07	31,8 ± 1,8 mg	58.9	> 10000	scarcely soluble					
CCCCCCCCCCCCCCCC(N)=O [Palmitoylamide]	0,2 ± 0,1 °C	33.9 % of control	0,35±0,05	33,2 ± 0.7 mg	61.2							
Cc1c(C(=O)c2cccc3ccccc23)c2cccc3c2n1[C@H](CN1CCOCC1)CO3 [WIN 55.212, reference compound]	-5,1 ± 1,3 °C	79.2 % of control	0,51 ±0,02	33,7 ± 4,6 mg	43.5			drastic reduction				
CCCCCCCCCCCCCCCCCC(=O)NC1CCCC1 [Example 38, N-cyclopentyl-stearoyl amide]	0,2 ± 0,2 °C	31.8 % of control	0,51±0,14	32,3 ± 3.3 mg	43.4	> 10000	scarcely soluble					
CCCCCCCCCCCCCCCCNC(C)=O [Example 12, N-hexadecyl-acetyl-amide]	0,2 ± 0,2 °C	64.8 % of control	0,72±0,03	41,5 ± 1,9 mg	20.0	> 10000	scarcely soluble					
CCCCCCCCCCCCCCCC(=O)NC1CCC1 [Example 27, N-cyclobutyl-palmitoyl amide]	0,1 ± 0,1 °C	29.2 % of control	0,39±0,11	38,5 ± 0.9 mg	56.7	> 10000	scarcely soluble					
CCCCCCCCCCCCCCCC(=O)NC1CCCC1 [Example 14, N-cyclopentyl-palmitoyl amide]		52.6 % of control					scarcely soluble		0,52±0,06	39,5 ± 0.8 mg	32.3	>10 mg/ml in DMSO and in chloroform
CCCCCCCCCCCCCCCCCC(=O)NCCC(C)C [Example 36, N-isopentyl-stearoyl amide]	0,1 ± 0,1 °C	30.2 % of control	0,52±0,05	33,7 ± 3.2 mg	42.7	> 10000	scarcely soluble					
CCCCCCCCCCCCCCCC(=O)NC1CC1 [Example 19, N-cyclopropyl-palmitoyl amide]		56.2 % of control	0,32±0,02	31,8 ± 3.6 mg	64.6	> 10000	scarcely soluble					
CCCCCCCCCCCCCCCC(=O)NCC(C)C [Example 25, N-isobutyl-palmitoyl amide]	0,3 ± 0,1 °C		0,72±0,07	42,4 ± 2.4 mg	20.0	> 10000	scarcely soluble					
CCCCCCCCCCCCCCCCCC(N)=O [Starylamide, stearylamide]	0,3 ± 0,2 °C	35.2 % of control	0,31±0,08	30,8 ± 0.5 mg	65.6							
CCCCCCCCCCCCCCCCCCNC(C)=O [Example 13, N-octadecyl-acetyl-amide]		67.2 % of control	0,74±0,07	43,3 ± 0.6 mg	17.2	> 10000	scarcely soluble					
CCCCCCCCCCCCCCCC(=O)NCCC [Example 17, N-propyl-palmitoyl amide]		21.4 % of control	0,52±0,12	32,3 ± 2.7 mg	32.3	> 10000	scarcely soluble					
CCCCCCCCCCCCCC(=O)NC(C)C [Example 1, N-isopropyl-myristoyl amide]	0,2 ± 0,3 °C	55.0 % of control	0,57±0,03	39,9 ± 2,1 mg	36.7	> 10000	scarcely soluble					
CCCCCCCCCCCCCCCC(=O)NC1CCCCC1 [Example 15, N-cyclohexyl-palmitoyl amide]	0,1 ± 0,1 °C	63.2 % of control	0,58±0,16	47,5 ± 4,2 mg			scarcely soluble					>10 mg/ml in DMSO and in chloroform
